Patent US8143408B2, “N-(8-heteroaryltetrahydronaphtalene-2yl) or N-(5-heteroarylchromane-3-yl) carboxamide derivatives for the treatment of pain” (AstraZeneca AB, priority 2007, dated 2012)

Target: T1, Nav1.7 voltage-gated sodium channel (Homo sapiens, UniProt Q15858)
T1 construct: Gene(s) encoding the full-length protein of the voltage-gated sodium channel of interest are cloned and expressed; expressed in transfected cells
Experiment: Whole-cell voltage clamp electrophysiology assay
Assay type: cell-based
Settings: cells stably expressing the voltage-gated sodium channel of interest
Outline: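 Cells expressing full-length channel, exposed to drug by integrated pipetting on automated patch-clamp platforms or by microperfusion in conventional whole-cell patch clamp. Channels activated by a voltage protocol depolarising from a defined holding potential; buffers per platform manufacturer.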

T1 sequence (Q15858 whole entry): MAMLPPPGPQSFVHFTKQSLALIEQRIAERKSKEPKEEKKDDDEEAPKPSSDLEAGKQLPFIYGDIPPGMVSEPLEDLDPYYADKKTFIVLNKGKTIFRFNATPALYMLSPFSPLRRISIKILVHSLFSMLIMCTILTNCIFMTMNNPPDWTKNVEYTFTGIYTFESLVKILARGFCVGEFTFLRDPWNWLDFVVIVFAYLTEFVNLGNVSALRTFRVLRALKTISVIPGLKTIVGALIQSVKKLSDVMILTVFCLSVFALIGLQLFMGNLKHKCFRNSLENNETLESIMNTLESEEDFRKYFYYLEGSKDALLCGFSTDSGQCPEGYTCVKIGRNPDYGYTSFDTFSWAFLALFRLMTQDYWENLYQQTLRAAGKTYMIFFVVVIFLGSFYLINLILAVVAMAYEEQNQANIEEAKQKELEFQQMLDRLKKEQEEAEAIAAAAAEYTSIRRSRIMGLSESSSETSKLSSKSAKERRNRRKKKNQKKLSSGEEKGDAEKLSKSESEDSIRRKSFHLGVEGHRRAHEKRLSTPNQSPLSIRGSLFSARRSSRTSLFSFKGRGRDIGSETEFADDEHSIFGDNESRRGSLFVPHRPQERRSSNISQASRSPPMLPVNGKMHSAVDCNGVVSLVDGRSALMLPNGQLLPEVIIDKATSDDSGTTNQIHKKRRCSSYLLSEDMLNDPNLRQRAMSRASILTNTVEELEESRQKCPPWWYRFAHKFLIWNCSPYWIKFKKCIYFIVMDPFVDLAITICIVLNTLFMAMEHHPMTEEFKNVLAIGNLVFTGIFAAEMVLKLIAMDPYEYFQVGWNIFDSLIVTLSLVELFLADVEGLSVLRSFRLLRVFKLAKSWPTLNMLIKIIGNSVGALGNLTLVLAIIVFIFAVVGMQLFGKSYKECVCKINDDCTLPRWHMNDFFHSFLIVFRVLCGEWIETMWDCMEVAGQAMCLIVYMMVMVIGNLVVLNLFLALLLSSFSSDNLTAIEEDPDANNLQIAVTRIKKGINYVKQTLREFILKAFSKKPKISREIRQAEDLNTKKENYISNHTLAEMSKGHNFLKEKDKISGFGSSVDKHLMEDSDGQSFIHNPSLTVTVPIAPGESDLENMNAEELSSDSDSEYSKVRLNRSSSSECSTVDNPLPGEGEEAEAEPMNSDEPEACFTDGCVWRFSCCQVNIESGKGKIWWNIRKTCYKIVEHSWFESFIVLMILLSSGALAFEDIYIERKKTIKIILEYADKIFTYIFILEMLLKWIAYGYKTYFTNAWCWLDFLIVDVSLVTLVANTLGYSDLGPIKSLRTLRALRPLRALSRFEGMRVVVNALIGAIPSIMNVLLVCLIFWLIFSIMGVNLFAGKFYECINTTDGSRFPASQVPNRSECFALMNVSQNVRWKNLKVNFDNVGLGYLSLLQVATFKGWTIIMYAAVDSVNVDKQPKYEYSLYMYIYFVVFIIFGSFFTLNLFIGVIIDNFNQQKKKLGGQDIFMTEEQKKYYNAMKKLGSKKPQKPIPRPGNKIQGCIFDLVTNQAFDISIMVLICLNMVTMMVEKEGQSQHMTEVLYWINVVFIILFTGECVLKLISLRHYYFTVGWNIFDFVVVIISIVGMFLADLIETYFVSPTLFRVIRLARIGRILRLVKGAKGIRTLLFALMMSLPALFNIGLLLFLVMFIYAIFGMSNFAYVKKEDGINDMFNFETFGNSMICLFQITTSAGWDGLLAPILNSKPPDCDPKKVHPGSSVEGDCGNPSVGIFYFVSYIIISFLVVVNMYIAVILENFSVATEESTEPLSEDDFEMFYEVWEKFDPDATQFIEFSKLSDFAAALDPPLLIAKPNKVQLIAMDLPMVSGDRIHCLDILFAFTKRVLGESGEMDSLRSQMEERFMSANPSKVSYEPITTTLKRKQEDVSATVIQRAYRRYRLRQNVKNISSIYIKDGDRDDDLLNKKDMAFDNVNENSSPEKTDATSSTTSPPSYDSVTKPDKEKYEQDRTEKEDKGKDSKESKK

Row | IC50 [nM] | SMILES
1 | 63.1 | Cc1ncc(-c2cccc3c2C[C@H](NC(=O)c2ccc(OC4CCC4)nc2)CO3)cn1 [Example 105, 6-(cyclobutyloxy)-N-[(3S)-5-(2-methylpyrimidin-5-yl)-3,4-dihydro-2H-chromen-3-yl]nicotinamide]
2 | 251 | COc1ncc(-c2cccc3c2C[C@H](NC(=O)c2ccc(OC4CCC4)nc2)CO3)cn1 [Example 106, 6-(cyclobutyloxy)-N-[(3S)-5-(2-methoxypyrimidin-5-yl)-3,4-dihydro-2H-chromen-3-yl]nicotinamide]
3 | 3980 | COc1ncc(-c2cccc3c2C[C@H](NC(=O)c2ccnc(OC(C)C)c2)CO3)cn1 [Example 107, 2-isopropoxy-N-[(3S)-5-(2-methoxypyrimidin-5-yl)-3,4-dihydro-2H-chromen-3-yl]isonicotinamide]
4 | 3980 | Cc1cnc(-c2cccc3c2C[C@H](NC(=O)c2ccc(OCCCF)nc2)CO3)c(C)n1 [Example 108, N-[(3S)-5-(3,5-dimethylpyrazin-2-yl)-3,4-dihydro-2H-chromen-3-yl]-6-(3-fluoropropoxy)nicotinamide]
5 | 126 | O=C(N[C@@H]1COc2cccc(-c3cnc(C4CC4)nc3)c2C1)c1ccc(OCC(F)(F)F)nc1 [Example 109, N-[(3S)-5-(2-cyclopropylpyrimidin-5-yl)-3,4-dihydro-2H-chromen-3-yl]-6-(2,2,2-trifluoroethoxy)nicotinamide]
6 | 2000 | CCCN(CCC)C(=O)c1ccc(C(=O)N[C@@H]2COc3cccc(-c4cnc(OC)nc4)c3C2)cn1 [Example 110, N^5-[(3S)-5-(2-methoxypyrimidin-5-yl)-3,4-dihydro-2H-chromen-3-yl]-N^2,N^2-dipropylpyridine-2,5-dicarboxamide]
7 | 251 | COc1ncc(-c2cccc3c2C[C@H](NC(=O)c2ccc(C(=O)NCCC(C)C)nc2)CO3)cn1 [Example 111, N^5-[(3S)-5-(2-methoxypyrimidin-5-yl)-3,4-dihydro-2H-chromen-3-yl]-N^2-(3-methylbutyl)pyridine-2,5-dicarboxamide]
8 | 1580 | COc1ncc(-c2cccc3c2C[C@H](NC(=O)c2ccc(C(=O)N(C)CC(C)C)nc2)CO3)cn1 [Example 112, N^2-isobutyl-N^5-[(3S)-5-(2-methoxypyrimidin-5-yl)-3,4-dihydro-2H-chromen-3-yl]-N^2-methylpyridine-2,5-dicarboxamide]
9 | 1000 | O=C(N[C@@H]1COc2cccc(-c3ccncc3)c2C1)c1ccc(OCc2nccs2)nc1 [Example 114, N-[(3S)-5-pyridin-4-yl-3,4-dihydro-2H-chromen-3-yl]-6-(1,3-thiazol-2-ylmethoxy)nicotinamide]
10 | 316 | Cc1cc(COc2ccc(C(=O)N[C@@H]3COc4cccc(-c5ccncc5)c4C3)cn2)no1 [Example 115, 6-[(5-methylisoxazol-3-yl)methoxy]-N-[(3S)-5-pyridin-4-yl-3,4-dihydro-2H-chromen-3-yl]nicotinamide]
11 | 2000 | Cn1ccnc1COc1ccc(C(=O)N[C@@H]2COc3cccc(-c4ccncc4)c3C2)cn1 [Example 116, 6-[(1-methyl-1H-imidazol-2-yl)methoxy]-N-[(3S)-5-pyridin-4-yl-3,4-dihydro-2H-chromen-3-yl]nicotinamide]
12 | 501 | O=C(N[C@@H]1COc2cccc(-c3ccncc3)c2C1)c1ccc(S(=O)(=O)C2CCCC2)nc1 [Example 117, 6-(cyclopentylsulfonyl)-N-[(3S)-5-pyridin-4-yl-3,4-dihydro-2H-chromen-3-yl]nicotinamide]
13 | 1580 | O=C(N[C@@H]1COc2cccc(-c3ccncc3)c2C1)c1ccc(OCc2ccccn2)nc1 [Example 118, N-[(3S)-5-pyridin-4-yl-3,4-dihydro-2H-chromen-3-yl]-6-(pyridin-2-ylmethoxy)nicotinamide]
14 | 2000 | O=C(N[C@@H]1COc2cccc(-c3ccncc3)c2C1)c1ccc(OCc2cccnc2)nc1 [Example 119, N-[(3S)-5-pyridin-4-yl-3,4-dihydro-2H-chromen-3-yl]-6-(pyridin-3-ylmethoxy)nicotinamide]
15 | 1580 | O=C(N[C@@H]1COc2cccc(-c3ccncc3)c2C1)c1ccc(OCc2cnccn2)nc1 [Example 120, 6-(pyrazin-2-ylmethoxy)-N-[(3S)-5-pyridin-4-yl-3,4-dihydro-2H-chromen-3-yl]nicotinamide]
16 | 5010 | COc1ncc(-c2cccc3c2C[C@H](NC(=O)c2ccc(OCC4CCCO4)nc2)CO3)cn1 (stereo partly drawn) [Example 121, N-[(3S)-5-(2-methoxypyrimidin-5-yl)-3,4-dihydro-2H-chromen-3-yl]-6-(tetrahydrofuran-2-ylmethoxy)nicotinamide]
17 | 2000 | COc1ncc(-c2cccc3c2C[C@H](NC(=O)c2ccc(OCC4CCCCO4)nc2)CO3)cn1 (stereo partly drawn) [Example 122, N-[(3S)-5-(2-methoxypyrimidin-5-yl)-3,4-dihydro-2H-chromen-3-yl]-6-(tetrahydro-2H-pyran-2-ylmethoxy)nicotinamide]
18 | 1000 | COc1ncc(-c2cccc3c2C[C@H](NC(=O)c2ccc(OCC4CCOCC4)nc2)CO3)cn1 [Example 123, N-[(3S)-5-(2-methoxypyrimidin-5-yl)-3,4-dihydro-2H-chromen-3-yl]-6-(tetrahydro-2H-pyran-4-ylmethoxy)nicotinamide]

Row | IC50 [nM] | SMILES
19 | 158 | CC#CCOc1ccc(C(=O)N[C@@H]2COc3cccc(-c4cnc(OC)nc4)c3C2)cn1 [Example 124, 6-(but-2-yn-1-yloxy)-N-[(3S)-5-(2-methoxypyrimidin-5-yl)-3,4-dihydro-2H-chromen-3-yl]nicotinamide]
20 | 316 | COc1ncc(-c2cccc3c2C[C@H](NC(=O)c2ccc(C(=O)NCCC(F)(F)F)nc2)CO3)cn1 [Example 125, N^5-[(3S)-5-(2-methoxypyrimidin-5-yl)-3,4-dihydro-2H-chromen-3-yl]-N^2-(3,3,3-trifluoropropyl)pyridine-2,5-dicarboxamide]
21 | 2000 | COCCOc1ccc(C(=O)N[C@@H]2COc3cccc(-c4ccncc4)c3C2)cn1 [Example 126, 6-(2-methoxyethoxy)-N-[(3S)-5-pyridin-4-yl-3,4-dihydro-2H-chromen-3-yl]nicotinamide]
22 | 3160 | O=C(N[C@@H]1COc2cccc(-c3ccncc3)c2C1)c1ccc(OCC2CCO2)nc1 (stereo partly drawn) [Example 127, 6-(oxetan-2-ylmethoxy)-N-[(3S)-5-pyridin-4-yl-3,4-dihydro-2H-chromen-3-yl]nicotinamide]
23 | 1000 | CO[C@H](C)COc1ccc(C(=O)N[C@@H]2COc3cccc(-c4ccncc4)c3C2)cn1 [Example 128, 6-{[(2R)-2-methoxypropyl]oxy}-N-[(3S)-5-pyridin-4-yl-3,4-dihydro-2H-chromen-3-yl]nicotinamide]
24 | 200 | O=C(N[C@@H]1COc2cccc(-c3ccncc3)c2C1)c1ccc(OC2CCOCC2)nc1 [Example 129, N-[(3S)-5-pyridin-4-yl-3,4-dihydro-2H-chromen-3-yl]-6-(tetrahydro-2H-pyran-4-yloxy)nicotinamide]
25 | 3980 | O=C(N[C@@H]1COc2cccc(-c3ccncc3)c2C1)c1ccc(C(=O)NC2CCOCC2)nc1 [Example 130, N^5-[(3S)-5-pyridin-4-yl-3,4-dihydro-2H-chromen-3-yl]-N^2-(tetrahydro-2H-pyran-4-yl)pyridine-2,5-dicarboxamide]
26 | 631 | O=C(N[C@@H]1COc2cccc(-c3ccncc3)c2C1)c1ccc(C(=O)NCC(F)(F)F)nc1 [Example 131, N^5-[(3S)-5-pyridin-4-yl-3,4-dihydro-2H-chromen-3-yl]-N^2-(2,2,2-trifluoroethyl)pyridine-2,5-dicarboxamide]
27 | 79.4 | O=C(N[C@@H]1COc2cccc(-c3cccnc3)c2C1)c1ccc(C(=O)NCCC(F)(F)F)nc1 [Example 132, N^5-[(3S)-5-pyridin-3-yl-3,4-dihydro-2H-chromen-3-yl]-N^2-(3,3,3-trifluoropropyl)pyridine-2,5-dicarboxamide]
28 | 794 | O=C(N[C@@H]1COc2cccc(-c3cccnc3)c2C1)c1cnc(OC2CCOCC2)cn1 [Example 133, N-[(3S)-5-pyridin-3-yl-3,4-dihydro-2H-chromen-3-yl]-5-(tetrahydro-2H-pyran-4-yloxy)pyrazine-2-carboxamide]
29 | 316 | COc1ccc(-c2cccc3c2C[C@H](NC(=O)c2ccc(OC4CCOCC4)nc2)CO3)cn1 [Example 134, N-[(3S)-5-(6-methoxypyridin-3-yl)-3,4-dihydro-2H-chromen-3-yl]-6-(tetrahydro-2H-pyran-4-yloxy)nicotinamide]
30 | 316 | COc1ccc(-c2cccc3c2C[C@H](NC(=O)c2ccc(OC4CCCOC4)nc2)CO3)cn1 (stereo partly drawn) [Example 135, N-[(3S)-5-(6-methoxypyridin-3-yl)-3,4-dihydro-2H-chromen-3-yl]-6-(tetrahydro-2H-pyran-3-yloxy)nicotinamide]
31 | 316 | O=C(N[C@@H]1COc2cccc(-c3ccncc3)c2C1)c1ccc(OC2CCCOC2)nc1 (stereo partly drawn) [Example 136, N-[(3S)-5-pyridin-4-yl-3,4-dihydro-2H-chromen-3-yl]-6-(tetrahydro-2H-pyran-3-yloxy)nicotinamide]
32 | 794 | COCCOc1ccc(C(=O)N[C@@H]2COc3cccc(-c4cccnc4)c3C2)cn1 [Example 137, 6-(2-methoxyethoxy)-N-[(3S)-5-pyridin-3-yl-3,4-dihydro-2H-chromen-3-yl]nicotinamide]
33 | 3160 | COCCn1nc(C)c(C(=O)N[C@@H]2COc3cccc(-c4cccnc4)c3C2)n1 [Example 138, 2-(2-methoxyethyl)-5-methyl-N-[(3S)-5-pyridin-3-yl-3,4-dihydro-2H-chromen-3-yl]-2H-1,2,3-triazole-4-carboxamide]
34 | 1580 | O=C(N[C@@H]1COc2cccc(-c3cccnc3)c2C1)c1ccc(OCC2CCO2)nc1 (stereo partly drawn) [Example 139, 6-(oxetan-2-ylmethoxy)-N-[(3S)-5-pyridin-3-yl-3,4-dihydro-2H-chromen-3-yl]nicotinamide]
35 | 631 | COCCOc1ccc(C(=O)N[C@@H]2COc3cccc(-c4ccnc(OC)c4)c3C2)cn1 [Example 140, 6-(2-methoxyethoxy)-N-[(3S)-5-(2-methoxypyridin-4-yl)-3,4-dihydro-2H-chromen-3-yl]nicotinamide]
